This data set can be described thus: solvent given as SMILES.

`C#CCOc1ccc(C2=[N+]3C(=Nc4c(-c5ccccc5)cc(-c5ccc(O)cc5)n4[B-]3(F)F)C(c3ccccc3)=C2)cc1` had an absorption maximum (in CO) of 688 nm, an absorption maximum (in Cc1ccccc1) of 685 nm and an absorption maximum (in ClC(Cl)Cl) of 680 nm.
Take `COc1ccc(/C=C/C2=CC(/C=C/c3ccc(OC)cc3)=[O+][B-](OC(C)=O)(OC(C)=O)O2)cc1`: the absorption maximum reads like this: (in C1CCOC1) 456 nm; (in CC#N) 462 nm; (in CC(C)=O) 458 nm; (in CS(C)=O) 468 nm; (in Cc1ccccc1) 456 nm; (in ClC(Cl)Cl) 464 nm. In addition, the absorption maximum (in ClCCl) came out at 464 nm.
The compound `CCCCCCCCC1(CCCCCCCC)c2cc(-c3ccccc3)ccc2-c2ccc(-c3ccccc3)cc21` displayed an absorption maximum (in ClC(Cl)Cl) of 327 nm.
On to `C(=C\c1ccc(-c2ccncc2)cc1)/c1ccc(-c2ccncc2)cc1`, for which the absorption maximum (in ClCCl) is on record as 345 nm.
Turning to `C(=C\c1ccc(Nc2ccccc2)cc1)/c1ccccc1`, the absorption maximum is, setting by setting: (in CC#N) 351 nm; (in CCCCCC) 346 nm.
For the compound `N#CC1=C(c2ccc(-c3cccs3)s2)CC1`, the absorption maximum is, setting by setting: (in C1CCOC1) 366 nm; (in CC#N) 364 nm; (in CCCCCC) 361 nm; (in CCO) 367 nm; (in OCCOCCO) 371 nm; (in c1ccncc1) 372 nm.
On to `COc1cc(-c2cc(-c3ccccc3)c(-c3ccccc3)c(-c3ccccc3)c2-c2ccccc2)c(OC)cc1-c1ccc(N(C)C)cc1`, for which the absorption maximum (in ClC(Cl)Cl) is 329 nm.
With `CCCCCCCCCCCCCCCCCCOc1ccc([B-]23NC(c4ccccc4)=Nc4cccc([n+]42)N=C(c2ccccc2)N3)cc1`, the absorption maximum (in ClCCl) is reported as 431 nm.
For `CCCCn1c2ccccc2c2ccc3c4cc(-c5ccc6ccccc6c5)ccc4n(CCCC)c3c21`, for the setting “in ClC(Cl)Cl”, the absorption maximum was 332 nm.
For the compound `CCN(CC)c1cc(F)c(C(=O)c2cc(F)c(F)cc2F)cc1F`, the absorption maximum (in CCO) is reported as 361 nm.
As for `CC1=[N+]2C(=C(c3cccs3)c3ccc(C)n3[B-]2(F)F)C=C1c1cc2n(c1)[B-](F)(F)[N+]1=CC=CC1=C2c1c(C)cc(C)cc1C`, the absorption maximum is 608.5 nm (in C1CCCCC1) and 605 nm (in CCOC(C)=O).
For `Cc1c(C(=O)c2ccc3c4cccc5cccc(c6cccc2c63)c54)c2ccc3cccc4c5cccc6ccc1c(c65)c2c34`, where the note is “in ClCCl”, the absorption maximum is listed as 468 nm.
`Cc1ccc(-c2nc3c([nH]2)C2=CC(=O)S[C@]2(C)[C@@]2(C)SC(=O)C=C32)cc1` registered an absorption maximum (in CC#N) of 455 nm.
`COc1ccc(-c2cccc3ncc(-c4ccccc4)n23)cc1` registered an absorption maximum (in ClCCl) of 332 nm.
Consider `O=c1oc2ccccc2cc1/C=C/c1ccccc1`, for which the absorption maximum (in CC#N) amounted to 351 nm.
Turning to `COc1ccc(/C=C/c2cc(/C=C/c3ccc(OC)cc3)ncn2)cc1`, the absorption maximum (in ClCCl) is 359 nm.
In turn, `CCCn1c(-c2cc(-c3nc4ccccc4n3CCC)cc(-c3nc4ccccc4n3CCC)c2)nc2ccccc21` had an absorption maximum (in CS(C)=O) of 301.5 nm.
`F[B-]1(F)n2c(/C=C/c3ccc(C(=C(c4ccccc4)c4ccccc4)c4ccccc4)cc3)ccc2C(c2ccccc2)=C2C=CC(/C=C/c3ccc(C(=C(c4ccccc4)c4ccccc4)c4ccccc4)cc3)=[N+]21` returned an absorption maximum (in C1CCOC1) of 665 nm.
As to `O=C1c2ccccc2S(=O)(=O)c2ccc(-n3c4ccccc4c4ccccc43)cc21`, the absorption maximum by setting is: (in C1CCOC1) 404 nm; (in CCCCCC) 404 nm; (in Cc1ccccc1) 404 nm; (in ClC(Cl)Cl) 404 nm; (in ClCCl) 404 nm.
Turning to `FC(F)(F)C(F)(F)C(F)(F)C(F)(F)C(F)(F)C(F)(F)CCOc1nnc(Cl)nn1`, the absorption maximum runs as follows: (in ClCCl) 519 nm; (in OCC(F)(F)F) 519 nm.
On to `Oc1cccc2ccccc12`, for which the absorption maximum (in C1CCCCC1) was determined as 303.49 nm.
`Cc1ccc2nc3[nH]c(=O)[nH]c(=O)c3nc2c1`: the absorption maximum stood at 382 nm (in CC#N) and 384 nm (in ClCCCl).
In the case of `F[B-]1(F)n2c(cc3sc4ccccc4c32)C(c2ccc(I)cc2)=C2C=c3sc4ccccc4c3=[N+]21`, the absorption maximum (in ClC(Cl)Cl) is given as 658 nm.
Where the note is “in ClCCl”, `Nc1ccc2c(ccc3[n+]2[B-](F)(F)n2c-3cc3c4ccccc4c4ccccc4c32)c1` had an absorption maximum of 482 nm.
For `c1ccc2c(-c3ccc(-n4c5ccccc5c5ccccc54)cc3)c3c(nc2c1)-c1cc2c(cc1CC3)-c1nc3ccccc3c(-c3ccc(-n4c5ccccc5c5ccccc54)cc3)c1CC2`, the absorption maximum (in ClC(Cl)Cl) is 377 nm.
For `C[Si](C)(C)C#Cc1cc2ccc3cc(C#C[Si](C)(C)C)cc4ccc(c1)c2c34`, the absorption maximum (in Cc1ccccc1) turned out to be 407 nm.
`COc1ccc(C#Cc2c3ccccc3c3n2[B-](F)(F)[N+]2=C(C)C=C(C)C2=C3)cc1`: the absorption maximum turned out to be 611 nm (in CCCCCC); 615 nm (in CCCCCCCCO); 610 nm (in CCOC(C)=O); 615 nm (in CN(C)C=O); 616 nm (in ClCCl).
For the compound `CCC1=C(C)C2=C(/C=C/c3ccc([N+](=O)[O-])cc3)c3c(C)c(CC)c(/C=C/c4ccc(OC)cc4)n3[B-](F)(F)[N+]2=C1/C=C/c1ccc(OC)cc1`, under “in ClCCl”, the absorption maximum was 666 nm.
The same measure, in the same setting: in the case of `CC(C)[Si](C#Cc1c2cc3ccccc3cc2c(C#Cc2ccc(C(F)(F)F)cc2)c2cc3ccccc3cc12)(C(C)C)C(C)C` it was 654 nm.
Turning to `Cc1cc(C)c2nc3[nH]c(=O)[nH]c(=O)c3nc2c1`, the absorption maximum (in CC#N) amounted to 388 nm.
In turn, `O=P(c1ccccc1)(c1ccccc1)n1c2ccccc2c2cc(-n3c4ccccc4c4ccccc43)ccc21` gave an absorption maximum (in C1CCOC1) of 340 nm.
The compound `CCCCCCCCCCCCCCOc1ccc(C#Cc2cc3nc4c(OCCCCCCCCCCCC)cc5c6cc(OCCCCCCCCCCCC)c(OCCCCCCCCCCCC)cc6c6cc(OCCCCCCCCCCCC)c(OCCCCCCCCCCCC)cc6c5c4nc3cc2C#Cc2ccc(OCCCCCCCCCCCCCC)cc2)cc1` had an absorption maximum (in ClC(Cl)Cl) of 486 nm.
Regarding `N#Cc1ccc(-c2nc(-c3ccccc3)c(-c3ccccc3)[nH]2)cc1`, for the setting “in CO”, the absorption maximum amounted to 339 nm.
Turning to `CCCCCCCCc1ccc(-c2c3cc(-c4cc(CCCCCCCC)c(-c5ccc(-c6sc(/C=C7\SC(N8CCCCC8)=NC7=O)cc6CCCCCCCC)s5)s4)sc3c(-c3ccc(CCCCCCCC)s3)c3cc(-c4cc(CCCCCCCC)c(-c5ccc(-c6sc(/C=C7\SC(N8CCCCC8)=NC7=O)cc6CCCCCCCC)s5)s4)sc23)s1`, under “in ClC(Cl)Cl”, the absorption maximum came to 475 nm.
For `CCN(CC)c1ccc2c(c1)oc(=O)c1c(=O)oc3cc(C#Cc4ccc(N(C)C)cc4)ccc3c12`, the absorption maximum is listed as 468 nm (in CS(C)=O) and 459 nm (in ClCCl).
Compound `COc1ccc(/C=C/c2cc(/C=C/c3ccc(OC)cc3)nc(/C=C/c3ccc(OC)cc3)n2)cc1` registered an absorption maximum (in ClCCl) of 339 nm.
The compound `CCCCCCCCCCCCOc1cc2c3c(ccc4c5c(OCCCCCCCCCCCC)cc6c7c(ccc(c1c34)c75)C(=O)N(C1CCCCC1)C6=O)C(=O)N(C1CCCCC1)C2=O` registered an absorption maximum (in ClC(Cl)Cl) of 570 nm.
Compound `c1ccc(C2c3ccccc3-c3cc4c(cc32)-c2ccccc2C4c2ccccc2)cc1` (stereo unspecified) showed an absorption maximum (in ClCCl) of 328 nm.
The same measure, in the same setting: the result for `C(#Cc1ncnc2ccccc12)c1ccc(N(c2ccccc2)c2ccccc2)cc1` reads 411 nm; that for `COc1ccc(-c2c3ccccc3c(-c3ccc(OC)cc3)c3ccccc23)cc1`, 376 nm.
Take `CCCCCCCCOc1ccc2c3cccc4c(OCCCCCCCC)ccc(c5cccc1c52)c43`: the absorption maximum (in C1CCOC1) worked out at 460 nm; the absorption maximum (in Cc1ccccc1) came to 462 nm; the absorption maximum (in ClC(Cl)(Cl)Cl) is 462 nm; the absorption maximum (in ClC(Cl)Cl) is reported as 462 nm; the absorption maximum (in ClCCl) was 461 nm; the absorption maximum (in c1ccncc1) is 464 nm.
In the case of `c1ccc2cc(-n3c4ccccc4c4ccccc43)ccc2c1`, the absorption maximum is given as 318 nm (in C1CCCCC1); 320 nm (in C1CCOC1); 321 nm (in CC#N); 320 nm (in CCO); 318 nm (in CCOC(C)=O); 319 nm (in CCOCC). Also, the absorption maximum (in CO) is reported as 319 nm, the absorption maximum (in Cc1ccccc1) is recorded as 319 nm and the absorption maximum (in ClC(Cl)Cl) is on record as 321 nm.
Consider `CCOC(=O)c1sc2nc3c(c(C#N)c2c1N)CCCCCC3`, for which, for the setting “in c1ccccc1”, the absorption maximum is 410 nm.
Compound `CCCCN1C(=O)c2cc(Br)c3c4c(Br)c(Br)c5c6c(cc(Br)c(c7c(Br)c(Br)c(c2c37)C1=O)c64)C(=O)N(CCCC)C5=O` displayed an absorption maximum (in ClC(Cl)Cl) of 534 nm.
In turn, `Cc1c(C)c2c3ccccc3[nH]c2c2ccccc12` registered an absorption maximum (in ClCCl) of 302 nm.
As for `Cc1csc2[n+]1[B-](F)(F)n1c(c3cccc4cccc1c43)=N2`, the absorption maximum by setting is: (in C1CCOC1) 476 nm; (in CC#N) 470 nm; (in CCCCCC) 477 nm; (in Cc1ccccc1) 479 nm; (in ClCCl) 445 nm.
Under “in ClC(Cl)Cl”, `COc1ccc(-c2oc3cccc4c5c(-c6ccc(OC)cc6)c(=N)oc6cccc(c2c34)c65)cc1` registered an absorption maximum of 408 nm.
On to `CCN(CC)c1ccc(-c2nc(Oc3ccc(-c4nc5cc([N+](=O)[O-])ccc5[nH]4)cc3)nc(Oc3ccc(-c4nc5cc([N+](=O)[O-])ccc5[nH]4)cc3)n2)cc1`, for which the absorption maximum (in CN(C)C=O) is given as 383 nm.
`C(#Cc1ccccc1)C(C#Cc1ccccc1)=Cc1ccccc1` registered an absorption maximum (in ClC(Cl)Cl) of 340 nm.
On to `COc1ccc(-c2pc3ccccc3s2)cc1` (stereo unspecified), for which, for the setting “in CC#N”, the absorption maximum was 347 nm.
On to `CN(C)c1ccc2nc(-c3ccc(C(=O)OC(C)(C)C)cc3)sc2c1`, for which the absorption maximum by setting is: (in C1CCCCC1) 384 nm; (in CC#N) 390 nm; (in CC(C)O) 392 nm; (in CO) 393 nm; (in CS(C)=O) 403 nm; (in ClC(Cl)Cl) 392 nm. Moreover, the absorption maximum (in c1ccccc1) came out at 392 nm.
Compound `N#Cc1c(N2CCCCC2)cc(-c2ccc(O)cc2)c2c1-c1cccc3cccc-2c13` came in with an absorption maximum (in O) of 432 nm.
